Target: T1, N-methyl-D-aspartate receptor (NMDAR), native in hippocampal neurons (Rattus norvegicus, UniProt P35439+Q00959+Q00960)
T1 construct: gene Grin1; native heteromeric receptor in primary rat hippocampal neurons; with GluN2A / GluN2B (native mixture, mostly GluN1/2A/2B)
Test: whole-cell patch clamp of NMDA-activated currents in primary rat hippocampal neurons ([…] NMDA, […] glycine)
Type: cell-based

T1 sequence (Q00959 23-1464, other chains not shown): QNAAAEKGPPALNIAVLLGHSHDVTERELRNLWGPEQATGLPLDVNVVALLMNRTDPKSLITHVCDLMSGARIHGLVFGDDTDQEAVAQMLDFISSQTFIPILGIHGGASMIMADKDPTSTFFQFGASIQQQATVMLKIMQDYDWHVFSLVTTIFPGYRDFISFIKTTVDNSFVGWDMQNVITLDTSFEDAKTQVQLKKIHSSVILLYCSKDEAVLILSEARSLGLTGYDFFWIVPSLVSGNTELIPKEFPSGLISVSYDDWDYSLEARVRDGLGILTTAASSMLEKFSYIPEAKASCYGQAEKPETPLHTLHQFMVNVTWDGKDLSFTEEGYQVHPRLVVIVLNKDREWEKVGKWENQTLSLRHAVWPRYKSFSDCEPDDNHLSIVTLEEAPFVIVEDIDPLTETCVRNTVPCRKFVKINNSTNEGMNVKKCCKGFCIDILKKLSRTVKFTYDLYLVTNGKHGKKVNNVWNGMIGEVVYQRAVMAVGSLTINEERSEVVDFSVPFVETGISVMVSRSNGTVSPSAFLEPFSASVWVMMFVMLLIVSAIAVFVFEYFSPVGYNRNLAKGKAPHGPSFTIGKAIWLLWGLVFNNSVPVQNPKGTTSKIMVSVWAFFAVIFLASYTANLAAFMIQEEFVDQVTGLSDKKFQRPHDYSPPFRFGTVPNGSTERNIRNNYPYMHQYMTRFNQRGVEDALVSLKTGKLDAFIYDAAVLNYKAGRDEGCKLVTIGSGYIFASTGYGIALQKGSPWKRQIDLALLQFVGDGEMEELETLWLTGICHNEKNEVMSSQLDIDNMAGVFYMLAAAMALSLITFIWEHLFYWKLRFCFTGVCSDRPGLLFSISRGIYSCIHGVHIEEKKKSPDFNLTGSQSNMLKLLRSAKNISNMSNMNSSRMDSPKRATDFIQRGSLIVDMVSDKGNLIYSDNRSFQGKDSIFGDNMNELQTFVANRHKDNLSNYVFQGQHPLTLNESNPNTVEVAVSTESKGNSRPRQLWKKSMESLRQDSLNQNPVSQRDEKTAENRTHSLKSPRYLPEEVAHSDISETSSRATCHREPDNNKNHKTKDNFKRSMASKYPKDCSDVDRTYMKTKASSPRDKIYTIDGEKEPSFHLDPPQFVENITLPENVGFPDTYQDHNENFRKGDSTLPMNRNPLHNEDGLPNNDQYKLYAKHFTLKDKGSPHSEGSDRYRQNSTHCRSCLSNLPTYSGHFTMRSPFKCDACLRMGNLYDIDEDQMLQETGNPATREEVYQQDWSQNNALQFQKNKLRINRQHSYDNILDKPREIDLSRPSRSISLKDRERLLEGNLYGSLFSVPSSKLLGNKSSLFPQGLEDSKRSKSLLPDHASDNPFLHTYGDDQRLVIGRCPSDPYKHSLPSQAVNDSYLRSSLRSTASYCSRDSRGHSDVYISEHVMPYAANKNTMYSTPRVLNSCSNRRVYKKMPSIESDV
T1 sequence (Q00960 27-1482, other chains not shown): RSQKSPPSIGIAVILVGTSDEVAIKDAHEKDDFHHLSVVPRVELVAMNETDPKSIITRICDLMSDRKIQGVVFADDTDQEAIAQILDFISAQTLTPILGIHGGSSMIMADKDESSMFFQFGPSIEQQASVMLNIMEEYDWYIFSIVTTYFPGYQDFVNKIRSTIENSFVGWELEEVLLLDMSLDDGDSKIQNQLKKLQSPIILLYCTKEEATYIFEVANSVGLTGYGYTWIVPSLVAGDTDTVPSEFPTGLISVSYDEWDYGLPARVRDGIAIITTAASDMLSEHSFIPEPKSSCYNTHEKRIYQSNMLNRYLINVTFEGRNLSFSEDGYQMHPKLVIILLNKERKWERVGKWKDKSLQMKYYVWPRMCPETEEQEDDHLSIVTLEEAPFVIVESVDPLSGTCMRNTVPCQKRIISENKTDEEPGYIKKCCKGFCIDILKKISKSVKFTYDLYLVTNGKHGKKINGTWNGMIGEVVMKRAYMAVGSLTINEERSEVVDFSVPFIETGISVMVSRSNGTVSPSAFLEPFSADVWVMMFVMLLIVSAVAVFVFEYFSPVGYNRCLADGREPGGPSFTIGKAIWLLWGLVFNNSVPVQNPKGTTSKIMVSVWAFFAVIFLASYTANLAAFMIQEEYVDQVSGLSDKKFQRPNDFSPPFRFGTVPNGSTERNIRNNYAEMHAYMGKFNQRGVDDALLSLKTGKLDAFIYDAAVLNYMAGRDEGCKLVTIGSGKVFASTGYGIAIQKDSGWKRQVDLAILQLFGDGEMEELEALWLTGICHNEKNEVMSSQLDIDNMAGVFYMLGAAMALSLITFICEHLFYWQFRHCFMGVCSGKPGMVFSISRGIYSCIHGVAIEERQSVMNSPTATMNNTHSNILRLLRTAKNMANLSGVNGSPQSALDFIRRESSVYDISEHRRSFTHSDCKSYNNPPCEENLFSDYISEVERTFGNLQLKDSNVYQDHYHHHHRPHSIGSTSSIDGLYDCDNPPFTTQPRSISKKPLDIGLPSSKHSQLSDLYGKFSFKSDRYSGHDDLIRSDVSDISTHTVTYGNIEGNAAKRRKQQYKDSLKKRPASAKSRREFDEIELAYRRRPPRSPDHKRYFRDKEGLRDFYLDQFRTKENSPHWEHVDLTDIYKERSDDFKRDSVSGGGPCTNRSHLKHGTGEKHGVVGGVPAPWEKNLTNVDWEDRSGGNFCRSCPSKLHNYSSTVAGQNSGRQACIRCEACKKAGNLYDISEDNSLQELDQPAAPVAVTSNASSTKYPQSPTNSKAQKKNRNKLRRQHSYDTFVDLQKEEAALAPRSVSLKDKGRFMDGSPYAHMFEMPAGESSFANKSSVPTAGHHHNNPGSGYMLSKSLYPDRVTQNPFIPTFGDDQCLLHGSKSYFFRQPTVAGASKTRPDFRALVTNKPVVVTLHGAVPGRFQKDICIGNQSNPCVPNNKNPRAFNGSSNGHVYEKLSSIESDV

With `CC(C)[C@@H](CC[C@@H](C)[C@H]1CC[C@H]2[C@@H]3[C@H](O)C[C@H]4C[C@@H](NCCCNCCCCNCCCN)CC[C@]4(C)[C@H]3CC[C@]12C)OS(=O)(=O)O` [TRO, trodusquemine] the IC50 was 5.1 nM.

Reference: publication PMC12220853, “Natural aminosterols inhibit NMDA receptors with low nanomolar potency” (The Febs Journal, 2025)
